Test results as given in patent US9616058B2, “Potent selective LSD1 inhibitors and dual LSD1/MAO-B inhibitors for antiviral use” (Oryzon Genomics, S.A., priority 2010, dated 2017).

Key:
Type in all cases: biochemical
[1] = target: T1, Human recombinant monoamine oxidase MAO-B (Homo sapiens, UniProt P27338); assay: Monoamine oxidase assay (kynuramine fluorescence), MAO-B; conditions: Ki measured at Vmax/2
T1 construct: purchased Sigma Aldrich
T1 sequence (P27338 1-520): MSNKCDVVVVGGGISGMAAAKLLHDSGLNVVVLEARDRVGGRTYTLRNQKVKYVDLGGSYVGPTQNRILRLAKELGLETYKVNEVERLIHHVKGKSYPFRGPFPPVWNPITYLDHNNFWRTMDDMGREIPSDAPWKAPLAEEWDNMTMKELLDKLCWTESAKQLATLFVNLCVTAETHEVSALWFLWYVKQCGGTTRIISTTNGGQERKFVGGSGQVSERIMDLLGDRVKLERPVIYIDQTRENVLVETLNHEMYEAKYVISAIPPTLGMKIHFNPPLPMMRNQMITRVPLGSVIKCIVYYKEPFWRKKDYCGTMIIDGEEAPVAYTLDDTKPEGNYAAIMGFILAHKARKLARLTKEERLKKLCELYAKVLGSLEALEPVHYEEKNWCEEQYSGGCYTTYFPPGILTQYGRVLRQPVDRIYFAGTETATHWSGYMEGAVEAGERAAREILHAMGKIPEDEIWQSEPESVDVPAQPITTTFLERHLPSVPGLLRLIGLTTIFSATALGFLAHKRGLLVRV
Method: (§1) MOAs catalyze the oxidative deamination of 1°, 2′ and 3° amines.
(§2) The Ki of each inhibitor was measure at Vmax/2.

[2] = target: T2, Human recombinant LSD1 protein (Homo sapiens, UniProt O60341); assay: LSD1 demethylase inhibition assay (Amplex Red peroxide/peroxidase-coupled); conditions: Ki (IC50) estimated at half of the maximum activity
T2 construct: purchased BPS Bioscience Inc
Excerpt: The compounds of the invention can be tested for their ability to inhibit LSD1.
The conversion of the Amplex®.

[3] = target: T3, Human recombinant monoamine oxidase MAO-A (Homo sapiens, UniProt P21397); assay: Monoamine oxidase assay (kynuramine fluorescence), MAO-A; conditions: Ki measured at Vmax/2
T3 construct: purchased Sigma Aldrich
T3 sequence (P21397 1-527): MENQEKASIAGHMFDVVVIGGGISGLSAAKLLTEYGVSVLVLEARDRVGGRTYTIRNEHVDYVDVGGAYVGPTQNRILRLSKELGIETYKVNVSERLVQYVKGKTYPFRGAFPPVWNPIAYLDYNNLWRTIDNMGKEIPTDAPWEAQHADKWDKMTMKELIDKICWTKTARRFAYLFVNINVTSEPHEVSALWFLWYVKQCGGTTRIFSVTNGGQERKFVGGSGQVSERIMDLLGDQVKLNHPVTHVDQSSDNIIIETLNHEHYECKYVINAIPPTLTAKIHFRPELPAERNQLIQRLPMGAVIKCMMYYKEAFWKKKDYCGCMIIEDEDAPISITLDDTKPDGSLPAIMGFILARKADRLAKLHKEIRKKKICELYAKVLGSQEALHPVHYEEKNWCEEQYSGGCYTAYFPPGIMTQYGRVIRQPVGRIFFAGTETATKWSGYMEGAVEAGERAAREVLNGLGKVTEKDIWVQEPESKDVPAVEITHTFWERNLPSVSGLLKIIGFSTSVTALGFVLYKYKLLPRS
Method: as §1, §2

SMILES | Ki [1] [µM] | Ki [2] [µM] | Ki [3] [µM]
N[C@@H]1CCN(CCN[C@H]2CC2c2ccccc2)C1 (some centres unmarked) [1(A)] | > 40 | < 1 | > 40
NC(=O)CN[C@H]1CC1c1ccc(OCc2cc(F)cc(F)c2)cc1 (some centres unmarked) [2(B)] | – | – | 20 to 30
c1ccc(C2C[C@@H]2NCCNC2CC2)cc1 (some centres unmarked) [Compound 2(A)] | – | – | ~10
c1ccc(C2C[C@@H]2NCCN2CCNCC2)cc1 (some centres unmarked) [1(B)] | > 30 | < 1 | > 30
